# Patent publication US20060252807A1, “Novel ortho-terphenyl inhibitors of p38 kinase and methods of treating inflammatory disorders” (Kalypsys, Inc., priority 2005, published 2006)
# Target: T1, active p38 alpha enzyme (Upstate Biotechnology) (Homo sapiens, UniProt Q16539)
# T1 construct: purchased Upstate Biotechnology
# Assay: p38α biochemical assay (ATP turnover, luminescent detection, Cambrex PKlight)
# Settings: p38α biochemical assay, Table 1 Biological Activity
# Summary of the method: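 Active p38α phosphorylates MapkapK2 whole protein with 1.4 uM final ATP, 2 h at 30C, in Tris/MOPS buffer with MgCl2, CaCl2, EGTA, EDTA, glycerol, β-mercaptoethanol and 1 mg/ml BSA. Compounds pin-delivered from DMSO; total ATP turnover read by luminescence after PKlight addition.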
# T1 sequence (Q16539 whole entry): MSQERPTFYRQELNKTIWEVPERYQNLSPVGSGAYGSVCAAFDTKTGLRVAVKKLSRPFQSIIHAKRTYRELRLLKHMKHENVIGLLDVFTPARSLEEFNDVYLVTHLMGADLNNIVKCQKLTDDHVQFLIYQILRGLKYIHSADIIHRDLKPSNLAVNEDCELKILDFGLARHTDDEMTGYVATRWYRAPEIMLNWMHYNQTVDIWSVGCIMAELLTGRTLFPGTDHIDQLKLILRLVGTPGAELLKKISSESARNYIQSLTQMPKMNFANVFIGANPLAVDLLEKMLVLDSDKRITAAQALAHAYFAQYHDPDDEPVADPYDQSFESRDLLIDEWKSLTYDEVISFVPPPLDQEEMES
row,SMILES,IC50
1,CC(C)NC(=O)c1csc(-c2oc(CN3CCN(C(=O)CC#N)CC3)nc2-c2ccc(F)cc2)n1 [Example 337],≤ 1000 nM
2,CC(C)NC(=O)c1csc(-c2oc(CN3CCN(C(=O)C(C)O)CC3)nc2-c2ccc(F)cc2)n1 (stereo not drawn) [Example 338],> 1000 nM
3,CCC(=O)C(=O)N1CCN(Cc2nc(-c3ccc(F)cc3)c(-c3nc(C(=O)NC(C)C)cs3)o2)CC1 [Example 339],> 1000 nM
4,CC(C)NC(=O)c1csc(-c2oc(CN3CCN(C(=O)C(C)(C)C)CC3)nc2-c2ccc(F)cc2)n1 [Example 340],≤ 1000 nM
5,CC(C)CC(=O)N1CCN(Cc2nc(-c3ccc(F)cc3)c(-c3nc(C(=O)NC(C)C)cs3)o2)CC1 [Example 341],> 1000 nM
6,CC(C)NC(=O)c1csc(-c2oc(CN3CCN(C(=O)c4cnc[nH]4)CC3)nc2-c2ccc(F)cc2)n1 [Example 342],≤ 1000 nM
7,CC(C)NC(=O)c1csc(-c2oc(CN3CCN(C(=O)c4ncc[nH]4)CC3)nc2-c2ccc(F)cc2)n1 [Example 343],≤ 1000 nM
8,CC(C)NC(=O)c1csc(-c2oc(CN3CCN(C(=O)C4=CCCC4)CC3)nc2-c2ccc(F)cc2)n1 [Example 344],> 1000 nM
9,CC(C)NC(=O)c1csc(-c2oc(CN3CCN(C(=O)C(F)(F)F)CC3)nc2-c2ccc(F)cc2)n1 [Example 345],≤ 1000 nM
10,CC(C)NC(=O)c1csc(-c2oc(CN3CCN(C(=O)C4CCCO4)CC3)nc2-c2ccc(F)cc2)n1 (stereo not drawn) [Example 346],> 1000 nM
11,CC(=O)NCC(=O)N1CCN(Cc2nc(-c3ccc(F)cc3)c(-c3nc(C(=O)NC(C)C)cs3)o2)CC1 [Example 347],> 1000 nM
12,CC(C)NC(=O)c1csc(-c2oc(CN3CCN(C(=O)c4ccccc4)CC3)nc2-c2ccc(F)cc2)n1 [Example 348],> 1000 nM
13,CC(C)NC(=O)c1csc(-c2oc(CN3CCN(C(=O)c4cccnc4)CC3)nc2-c2ccc(F)cc2)n1 [Example 349],> 1000 nM
14,CC(C)NC(=O)c1csc(-c2oc(CN3CCN(C(=O)c4ccncc4)CC3)nc2-c2ccc(F)cc2)n1 [Example 350],≤ 1000 nM
15,CC(C)NC(=O)c1csc(-c2oc(CN3CCN(C(=O)c4ccccn4)CC3)nc2-c2ccc(F)cc2)n1 [Example 351],> 1000 nM
16,CC(C)NC(=O)c1csc(-c2oc(CN3CCN(C(=O)C(O)CCl)CC3)nc2-c2ccc(F)cc2)n1 (stereo not drawn) [Example 352],> 1000 nM
17,Cc1cc(C(=O)N2CCN(Cc3nc(-c4ccc(F)cc4)c(-c4nc(C(=O)NC(C)C)cs4)o3)CC2)n[nH]1 [Example 353],≤ 1000 nM
18,CC(C)NC(=O)c1csc(-c2oc(CN3CCN(C(=O)c4cn(C)cn4)CC3)nc2-c2ccc(F)cc2)n1 [Example 354],≤ 1000 nM
19,CC(C)NC(=O)c1csc(-c2oc(CN3CCN(C(=O)C4CCCCC4)CC3)nc2-c2ccc(F)cc2)n1 [Example 355],≤ 1000 nM
20,CC(C)NC(=O)c1csc(-c2oc(CN3CCN(C(=O)c4cscn4)CC3)nc2-c2ccc(F)cc2)n1 [Example 356],≤ 1000 nM
21,CCOC(=O)CC(=O)N1CCN(Cc2nc(-c3ccc(F)cc3)c(-c3nc(C(=O)NC(C)C)cs3)o2)CC1 [Example 357],≤ 1000 nM

row,SMILES,IC50
1,Cc1cccc(C(=O)N2CCN(Cc3nc(-c4ccc(F)cc4)c(-c4nc(C(=O)NC(C)C)cs4)o3)CC2)c1 [Example 358],> 1000 nM
2,Cc1ccccc1C(=O)N1CCN(Cc2nc(-c3ccc(F)cc3)c(-c3nc(C(=O)NC(C)C)cs3)o2)CC1 [Example 359],> 1000 nM
3,Cc1ccc(C(=O)N2CCN(Cc3nc(-c4ccc(F)cc4)c(-c4nc(C(=O)NC(C)C)cs4)o3)CC2)cc1 [Example 360],> 1000 nM
4,CC(C)NC(=O)c1csc(-c2oc(CN3CCN(C(=O)c4cccc(O)c4)CC3)nc2-c2ccc(F)cc2)n1 [Example 361],> 1000 nM
5,CC(C)NC(=O)c1csc(-c2oc(CN3CCN(C(=O)c4ccccc4O)CC3)nc2-c2ccc(F)cc2)n1 [Example 362],≤ 1000 nM
6,CC(C)NC(=O)c1csc(-c2oc(CN3CCN(C(=O)c4ccc(F)cc4)CC3)nc2-c2ccc(F)cc2)n1 [Example 363],> 1000 nM
7,CC(C)NC(=O)c1csc(-c2oc(CN3CCN(C(=O)c4cccc(F)c4)CC3)nc2-c2ccc(F)cc2)n1 [Example 364],> 1000 nM
8,CCCCCCCC(=O)N1CCN(Cc2nc(-c3ccc(F)cc3)c(-c3nc(C(=O)NC(C)C)cs3)o2)CC1 [Example 365],> 1000 nM
9,CC(C)NC(=O)c1csc(-c2oc(CN3CCN(C(=O)c4ccc(C#N)cc4)CC3)nc2-c2ccc(F)cc2)n1 [Example 366],> 1000 nM
10,CC(C)NC(=O)c1csc(-c2oc(CN3CCN(C(=O)c4cccc(C#N)c4)CC3)nc2-c2ccc(F)cc2)n1 [Example 367],> 1000 nM
11,CC(C)NC(=O)c1csc(-c2oc(CN3CCN(C(=O)/C=C/c4ccccc4)CC3)nc2-c2ccc(F)cc2)n1 [Example 368],> 1000 nM
12,CC(C)NC(=O)c1csc(-c2oc(CN3CCN(C(=O)c4ccccc4C=O)CC3)nc2-c2ccc(F)cc2)n1 [Example 369],≤ 1000 nM
13,CC(C)NC(=O)c1csc(-c2oc(CN3CCN(C(=O)c4ccc(C=O)cc4)CC3)nc2-c2ccc(F)cc2)n1 [Example 370],> 1000 nM
14,Cc1ccc(C(=O)N2CCN(Cc3nc(-c4ccc(F)cc4)c(-c4nc(C(=O)NC(C)C)cs4)o3)CC2)c(C)c1 [Example 371],≤ 1000 nM
15,Cc1ccccc1CC(=O)N1CCN(Cc2nc(-c3ccc(F)cc3)c(-c3nc(C(=O)NC(C)C)cs3)o2)CC1 [Example 372],> 1000 nM
16,Cc1cccc(C(=O)N2CCN(Cc3nc(-c4ccc(F)cc4)c(-c4nc(C(=O)NC(C)C)cs4)o3)CC2)c1C [Example 373],> 1000 nM
17,Cc1ccc(C)c(C(=O)N2CCN(Cc3nc(-c4ccc(F)cc4)c(-c4nc(C(=O)NC(C)C)cs4)o3)CC2)c1 [Example 374],> 1000 nM
18,Cc1cc(C)cc(C(=O)N2CCN(Cc3nc(-c4ccc(F)cc4)c(-c4nc(C(=O)NC(C)C)cs4)o3)CC2)c1 [Example 375],> 1000 nM
19,Cc1ccc(C(=O)N2CCN(Cc3nc(-c4ccc(F)cc4)c(-c4nc(C(=O)NC(C)C)cs4)o3)CC2)cc1C [Example 376],> 1000 nM
20,CCc1ccc(C(=O)N2CCN(Cc3nc(-c4ccc(F)cc4)c(-c4nc(C(=O)NC(C)C)cs4)o3)CC2)cc1 [Example 377],> 1000 nM
21,COc1ccc(C(=O)N2CCN(Cc3nc(-c4ccc(F)cc4)c(-c4nc(C(=O)NC(C)C)cs4)o3)CC2)cc1 [Example 378],> 1000 nM

# Results, then the compound that gave them:
row,IC50,SMILES
1,≤ 1000 nM,Cc1cccc(C(=O)N2CCN(Cc3nc(-c4ccc(F)cc4)c(-c4nc(C(=O)NC(C)C)cs4)o3)CC2)c1O [Example 379]
2,≤ 1000 nM,CC(C)NC(=O)c1csc(-c2oc(CN3CCN(C(=O)Cc4ccccc4O)CC3)nc2-c2ccc(F)cc2)n1 [Example 380]
3,≤ 1000 nM,CC(C)NC(=O)c1csc(-c2oc(CN3CCN(C(=O)Cc4cccc(O)c4)CC3)nc2-c2ccc(F)cc2)n1 [Example 381]
4,≤ 1000 nM,Cc1ccc(O)c(C(=O)N2CCN(Cc3nc(-c4ccc(F)cc4)c(-c4nc(C(=O)NC(C)C)cs4)o3)CC2)c1 [Example 382]
5,≤ 1000 nM,CC(C)NC(=O)c1csc(-c2oc(CN3CCN(C(=O)c4cc(O)ccc4O)CC3)nc2-c2ccc(F)cc2)n1 [Example 383]
6,≤ 1000 nM,CC(C)NC(=O)c1csc(-c2oc(CN3CCN(C(=O)c4cccc(O)c4O)CC3)nc2-c2ccc(F)cc2)n1 [Example 384]
7,≤ 1000 nM,CC(C)NC(=O)c1csc(-c2oc(CN3CCN(C(=O)c4ccc(O)cc4O)CC3)nc2-c2ccc(F)cc2)n1 [Example 385]
8,> 1000 nM,Cc1ccc(C(=O)N2CCN(Cc3nc(-c4ccc(F)cc4)c(-c4nc(C(=O)NC(C)C)cs4)o3)CC2)cc1F [Example 386]
9,> 1000 nM,Cc1ccc(F)cc1C(=O)N1CCN(Cc2nc(-c3ccc(F)cc3)c(-c3nc(C(=O)NC(C)C)cs3)o2)CC1 [Example 387]
10,> 1000 nM,CC(C)NC(=O)c1csc(-c2oc(CN3CCN(C(=O)c4ccccc4Cl)CC3)nc2-c2ccc(F)cc2)n1 [Example 388]
11,> 1000 nM,CC(C)NC(=O)c1csc(-c2oc(CN3CCN(C(=O)c4ccc(Cl)nc4)CC3)nc2-c2ccc(F)cc2)n1 [Example 389]
12,> 1000 nM,CC(C)NC(=O)c1csc(-c2oc(CN3CCN(C(=O)c4cccnc4Cl)CC3)nc2-c2ccc(F)cc2)n1 [Example 390]
13,> 1000 nM,CC(C)NC(=O)c1csc(-c2oc(CN3CCN(C(=O)c4ccnc(Cl)c4)CC3)nc2-c2ccc(F)cc2)n1 [Example 391]
14,> 1000 nM,CC(C)NC(=O)c1csc(-c2oc(CN3CCN(C(=O)c4cc(Cl)ccn4)CC3)nc2-c2ccc(F)cc2)n1 [Example 392]
15,> 1000 nM,CC(C)NC(=O)c1csc(-c2oc(CN3CCN(C(=O)c4ccncc4Cl)CC3)nc2-c2ccc(F)cc2)n1 [Example 393]
16,> 1000 nM,CC(C)NC(=O)c1csc(-c2oc(CN3CCN(C(=O)c4c(F)cccc4F)CC3)nc2-c2ccc(F)cc2)n1 [Example 394]
17,> 1000 nM,CC(C)NC(=O)c1csc(-c2oc(CN3CCN(C(=O)c4cccc(F)c4F)CC3)nc2-c2ccc(F)cc2)n1 [Example 395]
18,> 1000 nM,CC(C)NC(=O)c1csc(-c2oc(CN3CCN(C(=O)c4ccc(F)cc4F)CC3)nc2-c2ccc(F)cc2)n1 [Example 396]
19,> 1000 nM,CC(C)NC(=O)c1csc(-c2oc(CN3CCN(C(=O)c4cc(F)cc(F)c4)CC3)nc2-c2ccc(F)cc2)n1 [Example 397]
20,> 1000 nM,CC(C)NC(=O)c1csc(-c2oc(CN3CCN(C(=O)c4ccc(F)c(F)c4)CC3)nc2-c2ccc(F)cc2)n1 [Example 398]
21,≤ 1000 nM,CC(CC(=O)N1CCN(Cc2nc(-c3ccc(F)cc3)c(-c3nc(C(=O)NC(C)C)cs3)o2)CC1)CC(C)(C)C (stereo not drawn) [Example 399]
22,> 1000 nM,CC(C)NC(=O)c1csc(-c2oc(CN3CCN(C(=O)c4cc5ccccc5o4)CC3)nc2-c2ccc(F)cc2)n1 [Example 400]
23,≤ 1000 nM,CC(C)NC(=O)c1csc(-c2oc(CN3CCN(C(=O)C4CCc5ccccc54)CC3)nc2-c2ccc(F)cc2)n1 (stereo not drawn) [Example 401]
24,≤ 1000 nM,CC(C)NC(=O)c1csc(-c2oc(CN3CCN(C(=O)C(Cl)(Cl)Cl)CC3)nc2-c2ccc(F)cc2)n1 [Example 402]
